From PubChem BioAssay (NCI) come the findings set out here.

Some test systems named below: 786-0 renal; ACHN renal; EKVX NSCLC; HCT-116 colon; NCI-H522 lung; OVCAR-3 ovarian; RPMI-8226 leukemia; SF-295 CNS; SW-620 colon; XF 498 CNS.
Holding throughout (assay): growth of human tumour cells (NCI), 48 h

SMILES strings stand for the structures.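 Briefly, cells in 96-well plates were exposed to five compound concentrations for 48 h, and endpoints were estimated by linear interpolation. Here, GI50 denotes the concentration required for 50% inhibition of growth. Definition used: TGI = concentration required for complete inhibition of growth.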

For `Clc1ccc(CN2COc3c(cc(Cl)c4cccnc34)C2)cc1`, the TGI in the test with 786-0 renal is 9.41 µM; in the test with ACHN renal, 8.74 µM; in the test with EKVX NSCLC, 14.2 µM; in the test on HCT-116 colon, 5.49 µM; in the test with NCI-H522 lung, 3.12 µM; in the test with OVCAR-3 ovarian, 6.84 µM. The TGI in the test with RPMI-8226 leukemia was found to be 3.42 µM; in the test on SF-295 CNS, 7.1 µM; in the test on SW-620 colon, 11 µM; in the test on XF 498 CNS, 7.24 µM.
`O=c1[nH]cc(OCC(F)(F)F)c(=O)[nH]1`: the TGI in the test with 786-0 renal, in the test with ACHN renal, in the test with EKVX NSCLC, in the test with HCT-116 colon, in the test on NCI-H522 lung and in the test on OVCAR-3 ovarian was over 100 µM throughout. For the same molecule, the TGI in the test with RPMI-8226 leukemia, in the test on SF-295 CNS, with SW-620 colon and in the test with XF 498 CNS was over 100 µM each time.
In the case of `O=C1c2ccccc2C(=O)C1C(c1ccc([N+](=O)[O-])cc1)C1C(=O)c2ccccc2C1=O`, the TGI was over 100 µM with 786-0 renal; over 100 µM in the test with ACHN renal; over 100 µM in the test on EKVX NSCLC; 49.3 µM in the test with HCT-116 colon; over 100 µM with NCI-H522 lung; 34.1 µM with OVCAR-3 ovarian. Also, the TGI in the test with RPMI-8226 leukemia is over 100 µM; in the test on SF-295 CNS, over 100 µM; in the test on SW-620 colon, 32.3 µM; with XF 498 CNS, over 100 µM.
On to `CC(=O)NC(CCCN(Cc1ccccc1)C(=O)N(CCCl)N=O)C(=O)NCc1ccccc1` (stereo not given), for which the TGI is over 58.7 µM in the test on 786-0 renal; over 96.3 µM in the test on ACHN renal; over 100 µM with EKVX NSCLC; over 100 µM in the test on HCT-116 colon; over 80.6 µM in the test with NCI-H522 lung; over 100 µM with OVCAR-3 ovarian. The TGI with RPMI-8226 leukemia was over 100 µM; with SF-295 CNS, over 100 µM; in the test with SW-620 colon, over 100 µM; in the test with XF 498 CNS, over 60.4 µM.
Consider `COC(=O)C(Cc1nc2ccc(Cl)cc2[nH]c1=O)C(=O)C(=O)Nc1ccccc1[N+](=O)[O-]` (stereo not given), for which the TGI in the test on 786-0 renal, in the test on ACHN renal, in the test on EKVX NSCLC, in the test with HCT-116 colon, in the test with NCI-H522 lung and in the test with OVCAR-3 ovarian was over 100 µM throughout. For the same molecule, the TGI with RPMI-8226 leukemia, with SF-295 CNS, with SW-620 colon and with XF 498 CNS was over 100 µM in each case.
As for `CC(=O)C1=C([O-])C(C)OC1=O.CC(=O)C1=C([O-])C(C)OC1=O.[NH-]C1CCCC[C@H]1[NH-].[Pt+4]` (stereo not given), the GI50 with 786-0 renal was 9.67 µM; in the test on ACHN renal, 73.2 µM; in the test with EKVX NSCLC, over 100 µM; in the test with HCT-116 colon, 45.6 µM; in the test with NCI-H522 lung it was 27.5 µM; in the test on OVCAR-3 ovarian, over 100 µM. Further, the GI50 with RPMI-8226 leukemia was 8.72 µM; in the test with SF-295 CNS, over 100 µM; in the test with SW-620 colon, 8.69 µM; in the test with XF 498 CNS, 66.9 µM. The TGI with 786-0 renal, in the test with ACHN renal, in the test with EKVX NSCLC, in the test on HCT-116 colon, with NCI-H522 lung and with OVCAR-3 ovarian was over 100 µM throughout. For the same molecule, the TGI with RPMI-8226 leukemia, in the test with SF-295 CNS, in the test with SW-620 colon and in the test with XF 498 CNS was over 100 µM in each case.
Turning to `CC1=NN(C(=O)c2ccc(Cl)cc2)C(=O)/C1=C/c1cccc([N+](=O)[O-])c1`, the TGI in the test on 786-0 renal, in the test with ACHN renal, with EKVX NSCLC, in the test on HCT-116 colon, in the test on NCI-H522 lung and in the test on OVCAR-3 ovarian was over 100 µM each time. Besides, the TGI with RPMI-8226 leukemia, in the test on SF-295 CNS, in the test on SW-620 colon and in the test with XF 498 CNS was over 100 µM throughout.
On to `CN(C)c1ccc(N=Nc2c([O-])ccc3ccccc23)cc1.[C-]#[O+].[C-]#[O+].[Ir]`, for which the GI50 with 786-0 renal is 26.4 µM; in the test on ACHN renal, 5.43 µM; in the test on EKVX NSCLC it was 20.6 µM; in the test with HCT-116 colon, 19.5 µM; with NCI-H522 lung, 7.83 µM; in the test with OVCAR-3 ovarian, 20.7 µM. The GI50 with RPMI-8226 leukemia was 22.7 µM; in the test with SF-295 CNS it was over 100 µM; in the test on SW-620 colon, 1.48 µM; in the test with XF 498 CNS, 17 µM. Further, the TGI in the test on 786-0 renal was over 56.3 µM; in the test on ACHN renal, 55.2 µM; with EKVX NSCLC, 64.1 µM; in the test on HCT-116 colon, 38.4 µM; with NCI-H522 lung, 23.5 µM; in the test with OVCAR-3 ovarian it was 45.6 µM. The TGI in the test on RPMI-8226 leukemia was over 65.1 µM; in the test with SF-295 CNS, over 100 µM; in the test with SW-620 colon it was 25.7 µM; in the test with XF 498 CNS, 33.3 µM.
Take `COC(=O)C(=O)C(C(=O)C=C(C)C)C(=O)C(=O)Nc1cccc(C(C)=O)c1` (stereo not given): the TGI in the test with 786-0 renal, in the test on ACHN renal, in the test on EKVX NSCLC, in the test on HCT-116 colon, in the test with NCI-H522 lung and with OVCAR-3 ovarian was over 100 µM in each case. Besides, the TGI in the test with RPMI-8226 leukemia, in the test with SF-295 CNS, with SW-620 colon and in the test with XF 498 CNS was over 100 µM throughout.
Turning to `CCO[C@@H]1C2C=CC(C2)[C@H]1[N+](=O)[O-]` (stereo not given in full), the TGI in the test on 786-0 renal, in the test with ACHN renal, in the test with EKVX NSCLC, in the test with HCT-116 colon, in the test with NCI-H522 lung and in the test with OVCAR-3 ovarian was over 100 µM each time. The TGI in the test with RPMI-8226 leukemia, in the test on SF-295 CNS, in the test with SW-620 colon and in the test on XF 498 CNS was over 100 µM throughout.
In the case of `CCOC(=O)/C(C#N)=C1\N[C@H](C(=O)OCC)CO1`, the TGI with 786-0 renal, with ACHN renal, in the test with EKVX NSCLC, in the test with HCT-116 colon, with NCI-H522 lung and in the test on OVCAR-3 ovarian was over 100 µM in each case. For the same molecule, the TGI in the test with RPMI-8226 leukemia was over 100 µM; with SF-295 CNS, over 100 µM; in the test with SW-620 colon it was over 100 µM; in the test on XF 498 CNS it was 78.1 µM.
Consider `CC(C)[C@@H](COC(C)(C)C)N=CN1CCc2c([nH]c3ccccc23)C1`, for which the TGI in the test on 786-0 renal, with ACHN renal, in the test with EKVX NSCLC, with HCT-116 colon, with NCI-H522 lung and with OVCAR-3 ovarian was over 100 µM each time. The TGI in the test on RPMI-8226 leukemia, in the test on SF-295 CNS, in the test with SW-620 colon and in the test on XF 498 CNS was over 100 µM throughout.
As to `O=C(Cc1ccccc1)N/N=C(\C1=Nc2ccc([N+](=O)[O-])cc2NC1O)C(O)c1ccc([N+](=O)[O-])cc1` (stereo not given), the TGI with 786-0 renal, in the test on ACHN renal, with EKVX NSCLC, in the test on HCT-116 colon, in the test on NCI-H522 lung and in the test with OVCAR-3 ovarian was over 100 µM throughout. Moreover, the TGI in the test on RPMI-8226 leukemia, in the test with SF-295 CNS, with SW-620 colon and in the test on XF 498 CNS was over 100 µM in each case.
